Results: patent US20030004211A1, “Carbohydrate modifying agent and drinks containing the modifying agent” (priority 2001, published 2003)

Columns and labels:
[1] = tested on: sobrinus streptococci; assay: in vitro growth and adherence of cariogenic bacteria (UCSF School of Preventive Dentistry study); format: cell-based; conditions: 0.5% zinc solution
Text: (§1) In another preferred embodiment of the invention, the formulation includes one or more zinc salt or other source of the zinc ion. Metabolically, zinc is a critical nutrient in the synthesis of insulin and the metabolism of carbohydrates. From a dental perspective, cariogenic bacteria enzymatically produce an insoluble glucan deposit from simple sugars present in the mouth that firmly adheres to the enamel tooth surface.

[2] = tested on: mutans streptococci; assay: as above; format: cell-based; conditions: 0.5% zinc solution
Text: as §1

[Cl-].[Cl-].[Zn+2] [zinc chloride]
inhibited: adherence of sobrinus streptococci [1] | growth of sobrinus streptococci [1] | adherence of mutans streptococci [2] | growth of mutans streptococci [2]

zinc ascorbate
inhibited: adherence of sobrinus streptococci [1] | growth of sobrinus streptococci [1] | adherence of mutans streptococci [2] | growth of mutans streptococci [2]
